Measured values taken from patent publication US12569509B2, “Method and composition for preventing and treating viral infections” (priority 2017, dated 2026).
Where “and” joins values, the source holds several entries; their conditions need not be identical. Equal entries are not always repeated.

Assays:
[1] = target: T1, RecQ helicase (Escherichia coli, UniProt P15043); experiment: Cell-free fluorescence molecular beacon helicase assay; assay type: biochemical, E. coli; set-up: Average rate of reaction / Rate (Triplicate): unit: RFU/min; details: for Average rate of reaction: mean of triplicate; for Rate (Triplicate): rate of reaction=(F0-F35)/35; for Fluorescence at 35 minutes, Run 2 / Fluorescence at time 0, Run 2: duplicate, listed as M; for Change in helicase activity compared to the DMSO control: any of the tested concentrations (0.06-200 μg/mL)
T1 construct: a full-length E. coli helicase, RecQ, was used

[2] = test system: human PBMC; experiment: LPS stimulated cytokine secretion in human PBMC pretreated with compounds (Phase 2); assay type: cell-based; details: 1 ng/mL LPS stimulation for 8 hours, means from 3 donors
Excerpt: Results are represented as fold-change relative to LPS treatment alone for each cytokine calculated by means from 3 separate donors.
RPMI medium alone, RPMI supplemented with 0.2% DMSO (to mimic treatment conditions) or LPS stimulation alone were used as controls.
Except for the two negative control conditions, all 3 donors responded to all experimental conditions tested with the secretion of TNF-α, IL-1β, and IL-6 albeit with a high degree of variability.

[3] = TA 0.2 μg/mL (plate column 5, wells A-C)
[4] = TA 2 μg/mL (plate column 7, wells A-C)
[5] = TA 6 μg/mL (plate column 8, wells A-C)
[6] = TA 200 μg/mL (plate column 11, wells A-C)
[7] = TA 200 + Buffer (plate column 12, wells A-C)

T1 sequence (P15043 whole entry): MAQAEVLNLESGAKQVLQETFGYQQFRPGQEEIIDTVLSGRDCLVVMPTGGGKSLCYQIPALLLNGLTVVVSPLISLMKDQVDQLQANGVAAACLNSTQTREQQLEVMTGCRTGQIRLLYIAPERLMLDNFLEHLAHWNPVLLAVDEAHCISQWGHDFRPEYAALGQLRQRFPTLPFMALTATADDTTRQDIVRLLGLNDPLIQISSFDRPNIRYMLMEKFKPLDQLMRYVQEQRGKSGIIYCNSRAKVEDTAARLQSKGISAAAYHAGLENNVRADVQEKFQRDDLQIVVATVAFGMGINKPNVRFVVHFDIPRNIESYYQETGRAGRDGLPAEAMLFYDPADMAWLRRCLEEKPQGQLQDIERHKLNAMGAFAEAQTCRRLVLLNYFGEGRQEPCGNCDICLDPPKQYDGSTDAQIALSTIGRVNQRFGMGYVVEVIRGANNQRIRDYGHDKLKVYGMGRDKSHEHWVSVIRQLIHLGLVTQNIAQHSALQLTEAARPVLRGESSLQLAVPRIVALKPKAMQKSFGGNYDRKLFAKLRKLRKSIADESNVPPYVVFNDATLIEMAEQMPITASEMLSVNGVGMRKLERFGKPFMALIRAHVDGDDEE

## O=c1c(O)c(-c2cc(O)c(O)c(O)c2)oc2cc(O)cc(O)c12 [Myricetin]
[1]; 0.06 μg/mL
  Average rate of reaction: 119.381
  Rate (Triplicate): 156.0857 and 120.9143 and 81.14
[1]; 0.2 μg/mL
  Fluorescence at 35 minutes, Run 2: 3820 RFU and 2972 RFU
  Fluorescence at time 0, Run 2: 5788 RFU and 4210 RFU
  Average rate of reaction: 54.7
[1]; 0.6 μg/mL
  Fluorescence at 35 minutes, Run 2: 4426 RFU and 3662 RFU
  Fluorescence at time 0, Run 2: 9244 RFU and 9661 RFU
  Average rate of reaction: 39.68
[1]; 2 μg/mL
  Fluorescence at 35 minutes, Run 2: 4289 RFU and 4448 RFU
  Fluorescence at time 0, Run 2: 8530 RFU and 9826 RFU
[1]; 2.0 μg/mL
  Average rate of reaction: 98.63
[1]; 6 μg/mL
  Fluorescence at 35 minutes, Run 2: 3604 RFU and 4445 RFU
[1]; 6.0 μg/mL
  Average rate of reaction: 107.0439
[1]; 20 μg/mL
  Fluorescence at 35 minutes, Run 2: 5025 RFU and 5336 RFU
  Fluorescence at time 0, Run 2: 5022 RFU and 5466 RFU
[1]; 20.0 μg/mL
  Average rate of reaction: 42.49
[1]; 60 μg/mL
  Fluorescence at 35 minutes, Run 2: 4100 RFU and 3834 RFU
[1]; 60.0 μg/mL
  Average rate of reaction: 85
[1]; 200 μg/mL
  Fluorescence at 35 minutes, Run 2: 2562 RFU and 2378 RFU
  Fluorescence at time 0, Run 2: 4555 RFU and 3893 RFU
[1]; 200.0 μg/mL
  Average rate of reaction: 69.46
  Rate (Triplicate): 81.98 and 52.34 and 74.0595
[1]; TA 0.06 μg/mL (plate column 4, wells A-C)
  Fluorescence at 0:00:00, Run 1: 14946 RFU and 8957 RFU and 8828 RFU
[1]; [3]
  Fluorescence at 0:00:00, Run 1: 10047 RFU and 9670 RFU and 6773 RFU
  Fluorescence at 0:35:00, Run 1: 7144 RFU and 8199 RFU and 5403 RFU
[1]; TA 0.6 μg/mL (plate column 6, wells A-C)
  Fluorescence at 0:35:00, Run 1: 7961 RFU and 4234 RFU and 5238 RFU
[1]; [4]
  Fluorescence at 0:00:00, Run 1: 12406 RFU and 10235 RFU and 7932 RFU
  Fluorescence at 0:35:00, Run 1: 8386 RFU and 5162 RFU and 6669 RFU
[1]; [5]
  Fluorescence at 0:00:00, Run 1: 13174 RFU and 13286 RFU and 6908 RFU
  Fluorescence at 0:35:00, Run 1: 9109 RFU and 7022 RFU and 6649 RFU
[1]; TA 20 μg/mL (plate column 9, wells A-C)
  Fluorescence at 0:35:00, Run 1: 7412 RFU and 10338 RFU and 6947 RFU
[1]; TA 60 μg/mL (plate column 10, wells A-C)
  Fluorescence at 0:35:00, Run 1: 8883 RFU and 7317 RFU and 6795 RFU
[1]; [6]
  Fluorescence at 0:00:00, Run 1: 6608 RFU and 4850 RFU and 6196 RFU
  Fluorescence at 0:35:00, Run 1: 5004 RFU and 3826 RFU and 4747 RFU
[1]; [7]
  Fluorescence at 0:00:00, Run 1: 5165 RFU and 8965 RFU and 8207 RFU
  Fluorescence at 0:35:00, Run 1: 3022 RFU and 4495 RFU and 5122 RFU
[1]
  Change in helicase activity compared to the DMSO control: no observed consistent change
[1]; listed as myricetin
  Change in helicase activity compared to the DMSO control: no effect
[2]; 10 mM (so in the source)
  IL-1β Mean Fold-Change (Relative to LPS alone): 1.10
  IL-6 Mean Fold-Change (Relative to LPS alone): 0.97
  TNF-α Mean Fold-Change (Relative to LPS alone): 0.90
[2]; 100 mM (so in the source)
  IL-1β Mean Fold-Change (Relative to LPS alone): 1.09
  IL-6 Mean Fold-Change (Relative to LPS alone): 0.88
  TNF-α Mean Fold-Change (Relative to LPS alone): 0.93
[2]; 200 mM (so in the source)
  IL-1β Mean Fold-Change (Relative to LPS alone): 0.98
  IL-6 Mean Fold-Change (Relative to LPS alone): 0.75
  TNF-α Mean Fold-Change (Relative to LPS alone): 0.86
